From ChEMBL document CHEMBL1909046, “DrugMatrix in vitro pharmacology data”

How the values were obtained:
[1] = target: T1, Alpha-2A adrenergic receptor (Homo sapiens, UniProt P08913); assay type: cell membranes, Sf9, Membrane; conditions: sf9
T1 sequence (P08913 whole entry): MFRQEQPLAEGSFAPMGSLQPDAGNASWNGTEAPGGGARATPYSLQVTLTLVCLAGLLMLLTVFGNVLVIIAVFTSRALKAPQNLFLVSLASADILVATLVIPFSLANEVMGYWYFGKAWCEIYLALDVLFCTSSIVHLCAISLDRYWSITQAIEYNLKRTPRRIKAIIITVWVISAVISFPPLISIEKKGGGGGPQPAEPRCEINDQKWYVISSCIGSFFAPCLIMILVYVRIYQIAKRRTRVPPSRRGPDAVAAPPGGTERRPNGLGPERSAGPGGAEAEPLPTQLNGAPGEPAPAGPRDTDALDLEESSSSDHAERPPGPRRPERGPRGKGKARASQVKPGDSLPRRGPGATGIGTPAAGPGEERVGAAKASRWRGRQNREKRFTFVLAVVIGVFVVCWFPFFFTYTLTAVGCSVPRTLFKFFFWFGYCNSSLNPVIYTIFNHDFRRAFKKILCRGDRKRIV

[2] = target: Tyrosine-protein kinase Fyn (Homo sapiens, UniProt P06241); test: biochemical; assay type: cell-based, Insect cells;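 further: enzymatic inhibition of Fyn kinase activity measured with Poly(Glu:Tyr) as the phosphorylation substrate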
Tyrosine-protein kinase Fyn, sequence (P06241 whole entry): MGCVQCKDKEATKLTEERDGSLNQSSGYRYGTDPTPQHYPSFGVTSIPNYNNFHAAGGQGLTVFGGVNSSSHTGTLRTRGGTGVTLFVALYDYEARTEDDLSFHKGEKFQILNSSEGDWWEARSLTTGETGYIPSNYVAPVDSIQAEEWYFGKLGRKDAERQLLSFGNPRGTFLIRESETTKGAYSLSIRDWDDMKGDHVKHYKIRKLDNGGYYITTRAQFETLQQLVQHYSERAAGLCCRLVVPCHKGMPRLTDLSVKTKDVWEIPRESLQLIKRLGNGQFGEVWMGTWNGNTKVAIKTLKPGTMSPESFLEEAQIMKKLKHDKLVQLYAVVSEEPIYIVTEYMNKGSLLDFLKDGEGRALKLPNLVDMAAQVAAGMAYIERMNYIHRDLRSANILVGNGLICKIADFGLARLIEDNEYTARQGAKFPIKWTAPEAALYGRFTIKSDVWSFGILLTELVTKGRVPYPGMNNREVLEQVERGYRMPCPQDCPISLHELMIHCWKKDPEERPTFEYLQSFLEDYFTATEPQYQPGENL

[3] = target: Protein phosphatase 3 catalytic subunit alpha (Homo sapiens, UniProt Q08209); parameters: species or system Escherichia coli;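 further: inhibition of calcineurin (PP2B) enzyme activity, measured with DiFMUP as the substrate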
[4] = target: T2, Neuropeptide Y receptor type 1 (Homo sapiens, UniProt P25929); assay type: cell membranes, Membrane; conditions: sk-n-mc
T2 sequence (P25929 whole entry): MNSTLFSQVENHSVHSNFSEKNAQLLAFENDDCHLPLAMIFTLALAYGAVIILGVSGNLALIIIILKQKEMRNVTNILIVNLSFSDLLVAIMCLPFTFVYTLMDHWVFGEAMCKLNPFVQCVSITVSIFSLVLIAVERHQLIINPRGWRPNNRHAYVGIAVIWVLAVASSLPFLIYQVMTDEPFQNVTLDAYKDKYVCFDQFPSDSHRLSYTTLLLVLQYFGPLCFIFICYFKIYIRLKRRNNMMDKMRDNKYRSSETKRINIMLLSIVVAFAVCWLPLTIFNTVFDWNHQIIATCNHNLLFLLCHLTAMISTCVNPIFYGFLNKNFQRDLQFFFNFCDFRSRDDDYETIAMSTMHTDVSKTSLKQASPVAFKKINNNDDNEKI

[5] = target: T3, Muscarinic acetylcholine receptor M5 (Homo sapiens, UniProt P08912); assay type: cell membranes, CHO-K1, Membrane; conditions: cho-k1
T3 sequence (P08912 whole entry): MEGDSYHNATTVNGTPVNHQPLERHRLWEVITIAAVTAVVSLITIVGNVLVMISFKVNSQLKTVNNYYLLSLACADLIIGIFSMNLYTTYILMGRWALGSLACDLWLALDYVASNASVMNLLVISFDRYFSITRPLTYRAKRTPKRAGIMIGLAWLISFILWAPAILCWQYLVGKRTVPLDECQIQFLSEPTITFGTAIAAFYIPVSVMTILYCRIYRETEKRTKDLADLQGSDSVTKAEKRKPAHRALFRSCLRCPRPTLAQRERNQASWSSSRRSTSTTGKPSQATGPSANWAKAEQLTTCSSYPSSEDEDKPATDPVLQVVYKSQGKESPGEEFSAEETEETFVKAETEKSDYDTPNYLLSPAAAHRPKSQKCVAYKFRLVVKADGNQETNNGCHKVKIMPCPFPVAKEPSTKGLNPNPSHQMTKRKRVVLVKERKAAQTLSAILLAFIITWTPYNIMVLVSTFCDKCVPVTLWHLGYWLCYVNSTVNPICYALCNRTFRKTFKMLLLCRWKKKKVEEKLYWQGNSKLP

[6] = target: T4, Muscarinic acetylcholine receptor M4 (Homo sapiens, UniProt P08173); assay type: cell membranes, CHO-K1, Membrane; conditions: cho-k1
T4 sequence (P08173 whole entry): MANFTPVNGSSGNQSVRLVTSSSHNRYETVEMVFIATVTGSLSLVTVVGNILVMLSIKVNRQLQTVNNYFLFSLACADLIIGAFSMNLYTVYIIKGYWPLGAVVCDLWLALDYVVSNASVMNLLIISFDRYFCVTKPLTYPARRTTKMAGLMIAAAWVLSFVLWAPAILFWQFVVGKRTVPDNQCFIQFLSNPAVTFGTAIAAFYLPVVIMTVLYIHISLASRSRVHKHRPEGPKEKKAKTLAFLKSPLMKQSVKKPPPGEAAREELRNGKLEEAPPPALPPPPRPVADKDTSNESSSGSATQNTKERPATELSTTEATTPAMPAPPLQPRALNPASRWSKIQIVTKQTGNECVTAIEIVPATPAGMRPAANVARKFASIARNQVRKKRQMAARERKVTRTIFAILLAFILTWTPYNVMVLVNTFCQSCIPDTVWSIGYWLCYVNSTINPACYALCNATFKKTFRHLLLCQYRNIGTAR

[7] = target: T5, 3-hydroxy-3-methylglutaryl-coenzyme A reductase (Homo sapiens, UniProt P04035); parameters: species or system Escherichia coli;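 further: enzyme inhibition assay of HMG-CoA reductase using radiolabeled [14C]HMG-CoA as substrate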
T5 sequence (P04035 whole entry): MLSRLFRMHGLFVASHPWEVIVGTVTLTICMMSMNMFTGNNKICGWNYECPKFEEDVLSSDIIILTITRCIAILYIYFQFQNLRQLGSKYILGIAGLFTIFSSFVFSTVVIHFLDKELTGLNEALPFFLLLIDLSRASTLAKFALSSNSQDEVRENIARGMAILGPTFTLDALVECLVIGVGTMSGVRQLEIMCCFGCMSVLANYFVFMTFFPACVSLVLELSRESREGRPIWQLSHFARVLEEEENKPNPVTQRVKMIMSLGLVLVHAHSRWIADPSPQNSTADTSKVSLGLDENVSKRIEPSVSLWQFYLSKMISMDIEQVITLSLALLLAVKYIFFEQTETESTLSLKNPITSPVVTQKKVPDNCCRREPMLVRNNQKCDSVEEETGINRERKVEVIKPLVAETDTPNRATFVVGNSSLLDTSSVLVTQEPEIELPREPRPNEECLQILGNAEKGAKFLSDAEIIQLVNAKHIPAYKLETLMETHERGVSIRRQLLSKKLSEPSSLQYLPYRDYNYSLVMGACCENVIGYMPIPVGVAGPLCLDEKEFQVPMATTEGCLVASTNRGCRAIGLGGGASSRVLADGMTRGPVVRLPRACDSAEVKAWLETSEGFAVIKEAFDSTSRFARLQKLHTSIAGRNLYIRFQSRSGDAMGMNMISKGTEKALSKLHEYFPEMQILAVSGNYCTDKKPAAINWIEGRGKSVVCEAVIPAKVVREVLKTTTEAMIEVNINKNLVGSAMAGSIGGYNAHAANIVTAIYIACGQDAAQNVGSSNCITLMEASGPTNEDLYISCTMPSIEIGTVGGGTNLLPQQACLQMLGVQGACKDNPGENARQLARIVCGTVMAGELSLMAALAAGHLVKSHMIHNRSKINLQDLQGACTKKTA
Further: in other assays of this panel Not Active means under 50% inhibition at 10 µM.

| Structure (SMILES) | IC50 [1] | IC50 ([2]; insect cells) | IC50 [3] | IC50 [4] | IC50 [5] | IC50 [6] | IC50 [7] | IC50 ([2]; read-out: IC50) [nM] | IC50 ([3]; read-out: IC50) [nM] |
| --- | --- | --- | --- | --- | --- | --- | --- | --- | --- |
| COc1cc(NS(=O)(=O)c2ccc(N)cc2)nc(OC)n1 [SULFADIMETHOXINE] | Not Active | Not Active | Not Active | Not Active | Not Active | Not Active | Not Active |  |  |
| Cc1cc(C)nc(NS(=O)(=O)c2ccc(N)cc2)n1 [SULFAMETHAZINE] | Not Active | Not Active | Not Active | Not Active | Not Active | Not Active | Not Active |  |  |
| C[C@]1(Cn2ccnn2)[C@H](C(=O)O)N2C(=O)C[C@H]2S1(=O)=O [TAZOBACTAM] | Not Active | Not Active | Not Active | Not Active | Not Active | Not Active | Not Active |  |  |
| CN1C(C(=O)Nc2ccccn2)=C(O)c2sccc2S1(=O)=O [TENOXICAM] | Not Active | Not Active | Not Active | Not Active | Not Active | Not Active | Not Active |  |  |
| CC(C)(C)c1ccc(C(O)CCCN2CCC(C(O)(c3ccccc3)c3ccccc3)CC2)cc1 (stereo unspecified) [TERFENADINE] | Not Active |  | Not Active | Not Active | Not Active | Not Active | Not Active | 6120 |  |
| O=C1CCC(N2C(=O)c3ccccc3C2=O)C(=O)N1 (stereo unspecified) [THALIDOMIDE] | Not Active | Not Active | Not Active | Not Active | Not Active | Not Active | Not Active |  |  |
| Cc1cccc(Nc2ccncc2S(=O)(=O)NC(=O)NC(C)C)c1 [TORSEMIDE] | Not Active | Not Active | Not Active | Not Active | Not Active | Not Active | Not Active |  |  |
| CC(C)C[C@H](NC(=O)[C@@H](O)[C@H](N)Cc1ccccc1)C(=O)O [UBENIMEX] | Not Active | Not Active | Not Active | Not Active | Not Active | Not Active | Not Active |  |  |
| Cc1onc(-c2ccccc2)c1-c1ccc(S(N)(=O)=O)cc1 [VALDECOXIB] | Not Active | Not Active | Not Active | Not Active | Not Active | Not Active | Not Active |  |  |
| CC[C@]1(O)C[C@@H]2CN(CCc3c([nH]c4ccccc34)[C@@](C(=O)OC)(c3cc4c(cc3OC)N(C)[C@H]3[C@@](O)(C(=O)OC)[C@H](OC(C)=O)[C@]5(CC)C=CCN6CC[C@]43[C@@H]65)C2)C1 [VINBLASTINE] | Not Active | Not Active | Not Active | Not Active | Not Active | Not Active | Not Active |  |  |
| CC(=O)CC(c1ccccc1)c1c(O)c2ccccc2oc1=O (stereo unspecified) [WARFARIN] | Not Active | Not Active | Not Active | Not Active | Not Active | Not Active | Not Active |  |  |
| C[C@@H](N)[C@H]1CC[C@H](C(=O)Nc2ccncc2)CC1 [Y-27632] | Not Active | Not Active | Not Active | Not Active | Not Active | Not Active | Not Active |  |  |
| [Cl-].[Cl-].[Zn+2] [ZINC CHLORIDE] | Not Active |  |  | Not Active | Not Active | Not Active | Not Active | 1880 | 1100 |
